Results from patent publication US11576979B2, “Pyrrolobenzodiazepine prodrugs and antibody conjugates thereof” (GENENTECH, INC., priority 2016, dated 2023).
pIC50: −log10 of the molar value.

How the values were obtained:
[1] = GSH adduct formation and stability of quinones; type: physicochemical; conditions: 15 mM GSH; for % Rem. (percent remaining after 3 hours): 25 uM, pH 7.0, 37 C; for Degr (degradation) / GSH Adduct: 3 hours
Description: For degradation analysis, the compounds were incubated at 25 μM with 15 mM GSH in 200 mM Tris buffer pH 7.0 containing 5% methanol at 37° C. for 3 hours. The control incubations were conducted without GSH. The samples were analyzed by LC/MS on Sciex TripleTOF 5600 on a Hypersil Gold C18 column (100×2.1, 1.9 μM, Thermo Scientific). The column was eluted by a gradient of buffer A (0.1% formic acid in 10 mM ammonium acetate) to buffer B (0.1% formic acid in 10 mM ammonium acetate in 90% acetonitrile), 5% B 0-0.5 min, 5-25% B 0.5-8 min, 25-75% B 8-13 min, and 75-95% B 13-13.5 min, 95% B 13.5-14.5 min, 95-5% B 14.5-15 min at 0.4 mL/min. All products were separated and characterized by LC/MS/MS in a positive ESI ion mode. Full scan accurate mass peak areas were used to estimate relative abundance of each component.

DT Diaphorase = target: T1, DT Diaphorase (Homo sapiens, UniProt P15559); assay: in vitro DT diaphorase activated drug release assay (NADPH depletion); type: biochemical; conditions: 90 min
T1 construct: purchased Sigma D1315
T1 sequence (P15559 whole entry): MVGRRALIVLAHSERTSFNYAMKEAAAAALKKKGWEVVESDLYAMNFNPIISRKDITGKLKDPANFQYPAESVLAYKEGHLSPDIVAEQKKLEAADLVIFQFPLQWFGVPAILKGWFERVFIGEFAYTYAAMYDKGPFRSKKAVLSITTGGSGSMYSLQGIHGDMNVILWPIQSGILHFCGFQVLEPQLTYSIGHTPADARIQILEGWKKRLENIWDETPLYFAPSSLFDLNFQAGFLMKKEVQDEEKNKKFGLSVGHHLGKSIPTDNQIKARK
Description: An in vitro DT diaphorase activated drug release assay was used to measure NADPH depletion. DT diaphorase activated release of Norfloxacin and Payload (PBD) was measured by the in vitro depletion of NADPH. The assay method was modified from the absorbance measurement of NADPH at A340 (Osman et. al, Chemico-Biological Interactions 147 (2004) 99-108) due to the interference of compounds. The depletion of NADPH was measured by monitoring the decrease of fluorescence intensity of NADPH at 480 nm after being excited at […]. […] Prior to assay, dilute the stock to 1 mM as the 5× working solution; (5) DT Diaphorase specific Inhibitor: prepare 40 mM stock of Dicumarol (Sigma, Cat #M1390-5G, MW=336.29) in 0.13 N NaOH, stored at 4° C. Dilute the stock to 250 uM as the 5× working solution; (6) Compounds: dilute the Norfloxacin and PBD conjugated compounds in assay buffer to 250 uM as the 5× working solution; and (7) 384 well black plate with clear bottom. For the assay procedure: (1) The reaction mix containing 0.5 uM DT-D, 50 uM compound, […] NADPH was set up in a 384 well plate at 50 ul/well. For the control with DT Diaphorase inhibitor, Dicumarol was added in the reaction mix at final 50 uM for each compound. Reaction mix containing NADPH and compound only was also added as the baseline controls. The DT Diaphorase was added in the last step; and (2) The reaction mixes were incubated at room temperature for 5, 30, 90 min. The fluorescence intensity (RFU) of DNAPH was recorded on M1000 plate reader (Tecan) with excitation at 340 nm and emission at 480 nm. For data analysis, data was analyzed and plotted using Prism GraphPad 6. The depletion of NADPH was calculated by the formula below at reaction time point at 90 min wherein: % NADPH depletion=[…].

KPL-4 = assay: CELLTITER GLO cell proliferation assay (Example 6); type: cell-based; conditions: KPL4, read-out: IC50 potency KPL-4, Table 4; data in parenthesis = repeat evaluations
Description: (§1) The toxicity of PBD monomer disulfide prodrugs and diaphorase prodrugs were evaluated against KPL-4, WSU-DLCL2, HCT-116, HCC1395 and Jurkat cell cultures. […] KPL-4 cells further have a high expression of DTD on the order of about 839 nRPKM (where nRPKM refers to normalized reads per Kb of transcript length per million mapped read).
(§2) Potency of the disulfide and DT-diaphorase prodrugs was measured by a cell proliferation assay employing the following protocol (CELLTITER GLO™ Luminescent Cell Viability Assay, Promega Corp.). First, an aliquot of 40 ul of cell culture containing about 8000 cells of WSU-DLCL2 cells (low NQO1 gene and GSH level), 4000 cells of KPL-4 (high NQO1 gene and GSH level), HCT-116 cells, HCC1395 cells or Jurkat cells in RPMI-1640 culture medium (supplemented with 10% fetal bovine serum, 2 mM glutamine, 50 uM cystine, and 0.015 g/L L-methionine) was deposited in each well of a 384-well flat clear bottom white polystyrene tissue culture-treated microplates (Corning, N.Y.). Second, control wells were prepared containing medium with and without cells. Third, compounds with and without disulfide or DT-diaphorase prodrugs (n=3) were added to the experimental wells using ECHO acoustic liquid handling technology (Labcyte Inc, Sunnyvale, Calif.) to create a 10-point dose-response curve in triplicate with 1:3× serial dilution. Fourth, cells were cultured in a humidified incubator set at 37° C. and maintaining an atmosphere of 5% CO2. Fifth, the plates were equilibrated to room temperature for approximately 30 minutes. Sixth, a volume of CELLTITER GLO™ Reagent equal to the volume of cell culture medium present in each well was added. Seventh, the contents were mixed for 10 minutes on an orbital shaker in the dark to induce cell lysis. Eighth, the plate was incubated at room temperature for 30 minutes to stabilize the luminescence signal. Ninth, luminescence was recorded and reported in graphs as % activity where RLU (relative luminescence units) was normalized to controls (no compound control minus no cell control). Tenth, data was plotted as individual points for each replicate (n=3) for each antibody as the mean of luminescence for each set of replicates, with standard deviation error bars.

WSU-DLCL2 = assay: CELLTITER GLO cell proliferation assay (Example 6); type: cell-based; conditions: Homo sapiens, WSUDLCL2, read-out: IC50 potency WSU-DLCL2, Table 4; data in parenthesis = repeat evaluations
Description: as §1, §2

A2058 = assay: CellTiter-Glo toxicity, 4 days (Example 9); type: cell-based; conditions: Homo sapiens, A2058, 96 h, 4 days of drug incubation; Table 7A
Description: (§3) The toxicity of various PBD monomer disulfide prodrugs and PBD dimer disulfide prodrugs was evaluated on UACC-257, Igrov-1 and A2058 cell lines. Cells were seeded in 384-well plate and treated with drug 24 hours later. After 4 days of drug incubation, the cell viability was determined using Promega CellTiter-Glo luminescent reagent, which measures ATP level (an indirect measure of cell number). The luminescent intensity was measured on PerkinElmer Envision reader. The relative cell viability was calculated by normalizing to non-drug treatment control and was graphed using KleidaGraph software package. IC50 value was determined as the concentration to obtain 50% of the maximum cell killing.

Igrov-1 = assay: CellTiter-Glo toxicity, 4 days (Example 9); type: cell-based; conditions: Homo sapiens, IGROV-1, 96 h, 4 days of drug incubation; Table 7A
Description: as §3

UACC-257 = assay: CellTiter-Glo toxicity, 4 days (Example 9); type: cell-based; conditions: Homo sapiens, UACC-257, 96 h, 4 days of drug incubation; Table 7A
Description: as §3

[2] = Disulfide cleavage by cysteine, LC/MS; type: physicochemical; conditions: 15 uM compound, 0.2 mM cysteine, pH 7.0, 37 C
Description: (§4) For disulfide cleavage determination, the compounds were incubated at 15 μM with 0.2 mM cysteine or 4 mM GSH in 100 mM Tris buffer pH 7.0 containing 5% methanol at 37° C. Aliquots were taken at specified time points and the samples were analyzed by LC/MS on Sciex TripleTOF 5600 on a Hypersil Gold C18 column (100×2.1, 1.9 Thermo Scientific). The column was eluted by a gradient of buffer A (0.1% formic acid in 10 mM ammonium acetate) to buffer B (0.1% formic acid in 10 mM ammonium acetate in 90% acetonitrile), 5% B 0-0.5 min, 5-25% B 0.5-8 min, 25-75% B 8-13 min, and 75-95% B 13-13.5 min, 95% B 13.5-14.5 min, 95-5% B 14.5-15 min at 0.4 mL/min. All products were separated and characterized by LC/MS/MS in a positive ESI ion mode. All analytes had the protonated molecular MH+ as the major species with little source fragmentation. Full scan accurate mass peak areas were used to estimate relative abundance of each component.

[3] = Disulfide cleavage by glutathione (GSH), LC/MS; type: physicochemical; conditions: 15 uM compound, 4 mM GSH, pH 7.0, 37 C
Description: as §4

SMILES | % Rem. (percent remaining after 3 hours) [1] [%] | Degr (degradation) [1] | NADPH Dep. (NADPH depletion at 90 minutes) (DT Diaphorase) | further results
COC1=CC(=O)c2c(c(CO)cn2C)C1=O | 90 | – | 95.99% | GSH Adduct [1]: yes
COC1=CC(=O)c2c(c(CO)c(C)n2C)C1=O | 87 | – | 74.83% | GSH Adduct [1]: yes
C=C1C[C@H]2C(O)N(C(=O)OCc3ccc(NC(=O)OCc4cc5c(n4C)C(=O)C=C(OC)C5=O)cc3)c3cc(OC)c(OC)cc3C(=O)N2C1 (stereo partly shown) [PBD monomer diaphorase prodrug 3] | – | – | >90% at | pIC50 (KPL-4): 6.45; pIC50 (WSU-DLCL2): 6.35
C=C1C[C@H]2C(O)N(C(=O)OCc3ccc(SSC(C)(C)C)cc3)c3cc(OC)c(OC)cc3C(=O)N2C1 (stereo partly shown) [PBD monomer disulfide prodrug 6] | – | – | – | pIC50 (KPL-4): 6.09; pIC50 (WSU-DLCL2): 5.55; pIC50 (A2058): 6.25; pIC50 (Igrov-1): 5.49; pIC50 (UACC-257): 6.30; % Remaining at 24 h by Cys [2]: 85.4%; % Remaining at 24 h by GSH [3]: 2.1%
C=C1C[C@H]2C(O)N(C(=O)OCC3(SSCC)CCCC3)c3cc(OC)c(OC)cc3C(=O)N2C1 (stereo partly shown) [PBD monomer disulfide prodrug 5] | – | – | – | pIC50 (KPL-4): 5.98; pIC50 (WSU-DLCL2): 5.87; pIC50 (A2058): 6.40; pIC50 (Igrov-1): 6.12; pIC50 (UACC-257): 6.05; % Remaining at 24 h by Cys [2]: 90.9%; % Remaining at 24 h by GSH [3]: 65.9%
COC1=CC(=O)c2c(c(C=O)c(CO)n2C)C1=O [2-(hydroxymethyl)-5-methoxy-1-methyl-4,7-dioxo-4,7-dihydro-1H-indole-3-carbaldehyde] | 0 | yes | 96.92% | –
COC1=C(C)C(=O)c2c(c(C)c(CO)n2C)C1=O | 92.5 | – | None | GSH Adduct [1]: yes
COC(=O)c1c2c(n(C)c1CO)C(=O)C=C(OC)C2=O [methyl 2-(hydroxymethyl)-5-methoxy-1-methyl-4,7-dioxo-4,7-dihydro-1H-indole-3-carboxylate] | 100 | – | None | –
CCn1cc(C(=O)O)c(=O)c2cc(F)c(N3CCN(C(=O)OCc4ccc(NC(=O)OCc5cc6c(n5C)C(=O)C=C(OC)C6=O)cc4)CC3)cc21 | 63 | yes | 94/0 | –

Continued, in another order:

% Rem. (percent remaining after 3 hours) [1] [%] | Degr (degradation) [1] | NADPH Dep. (NADPH depletion at 90 minutes) (DT Diaphorase) | SMILES | further results
82.1 | yes | 91.5% | CCn1cc(C(=O)O)c(=O)c2cc(F)c(N3CCN(C(=O)OCc4c(C=O)c5c(n4C)C(=O)C=C(OC)C5=O)CC3)cc21 | –
– | – | 85.2% | CCn1cc(C(=O)O)c(=O)c2cc(F)c(N3CCN(C(=O)OCc4cn(C)c5c4C(=O)C(OC)=CC5=O)CC3)cc21 | –
55.5 | yes | 26.1% | CCn1cc(C(=O)O)c(=O)c2cc(F)c(N3CCN(C(=O)OCc4c(C)c5c(n4C)C(=O)C=C(OC)C5=O)CC3)cc21 | –
100 | – | 17.4% | CCn1cc(C(=O)O)c(=O)c2cc(F)c(N3CCN(C(=O)OCc4c(C(=O)OC)c5c(n4C)C(=O)C=C(OC)C5=O)CC3)cc21 | –
50 | yes | 2.01% | CCn1cc(C(=O)O)c(=O)c2cc(F)c(N3CCN(C(=O)OCc4c5c(n(C)c4C)C(=O)C=C(OC)C5=O)CC3)cc21 | –
37.6 | yes | 53.23% | CCn1cc(C(=O)O)c(=O)c2cc(F)c(N3CCN(C(=O)OCc4cc5c(n4C)C(=O)C=C(OC)C5=O)CC3)cc21 | –
